Data on two compounds can be found in publication PMC10907374, “G2019S selective LRRK2 kinase inhibitor abrogates mitochondrial DNA damage” (NPJ Parkinson's Disease, 2024).

Usually IC50 stands for the concentration needed to halve the response being measured.

Values joined by “and” are separate entries in the source; they are usually repeats but may differ in a detail not shown here. Equal entries are not always repeated. “Also recorded” adds a separate entry of the source.

The target in series [1] is T1, G2019S variant of human LRRK2 (G2019S-LRRK2) (Homo sapiens, UniProt Q5S007, G2019S).
T1 construct: WT-LRRK2 or G2019S-LRRK2 overexpressing cells show expression of LRRK2 pSer1292 and full-length LRRK2; expressed in transfected cells
T1 sequence (Q5S007 whole entry G2019S): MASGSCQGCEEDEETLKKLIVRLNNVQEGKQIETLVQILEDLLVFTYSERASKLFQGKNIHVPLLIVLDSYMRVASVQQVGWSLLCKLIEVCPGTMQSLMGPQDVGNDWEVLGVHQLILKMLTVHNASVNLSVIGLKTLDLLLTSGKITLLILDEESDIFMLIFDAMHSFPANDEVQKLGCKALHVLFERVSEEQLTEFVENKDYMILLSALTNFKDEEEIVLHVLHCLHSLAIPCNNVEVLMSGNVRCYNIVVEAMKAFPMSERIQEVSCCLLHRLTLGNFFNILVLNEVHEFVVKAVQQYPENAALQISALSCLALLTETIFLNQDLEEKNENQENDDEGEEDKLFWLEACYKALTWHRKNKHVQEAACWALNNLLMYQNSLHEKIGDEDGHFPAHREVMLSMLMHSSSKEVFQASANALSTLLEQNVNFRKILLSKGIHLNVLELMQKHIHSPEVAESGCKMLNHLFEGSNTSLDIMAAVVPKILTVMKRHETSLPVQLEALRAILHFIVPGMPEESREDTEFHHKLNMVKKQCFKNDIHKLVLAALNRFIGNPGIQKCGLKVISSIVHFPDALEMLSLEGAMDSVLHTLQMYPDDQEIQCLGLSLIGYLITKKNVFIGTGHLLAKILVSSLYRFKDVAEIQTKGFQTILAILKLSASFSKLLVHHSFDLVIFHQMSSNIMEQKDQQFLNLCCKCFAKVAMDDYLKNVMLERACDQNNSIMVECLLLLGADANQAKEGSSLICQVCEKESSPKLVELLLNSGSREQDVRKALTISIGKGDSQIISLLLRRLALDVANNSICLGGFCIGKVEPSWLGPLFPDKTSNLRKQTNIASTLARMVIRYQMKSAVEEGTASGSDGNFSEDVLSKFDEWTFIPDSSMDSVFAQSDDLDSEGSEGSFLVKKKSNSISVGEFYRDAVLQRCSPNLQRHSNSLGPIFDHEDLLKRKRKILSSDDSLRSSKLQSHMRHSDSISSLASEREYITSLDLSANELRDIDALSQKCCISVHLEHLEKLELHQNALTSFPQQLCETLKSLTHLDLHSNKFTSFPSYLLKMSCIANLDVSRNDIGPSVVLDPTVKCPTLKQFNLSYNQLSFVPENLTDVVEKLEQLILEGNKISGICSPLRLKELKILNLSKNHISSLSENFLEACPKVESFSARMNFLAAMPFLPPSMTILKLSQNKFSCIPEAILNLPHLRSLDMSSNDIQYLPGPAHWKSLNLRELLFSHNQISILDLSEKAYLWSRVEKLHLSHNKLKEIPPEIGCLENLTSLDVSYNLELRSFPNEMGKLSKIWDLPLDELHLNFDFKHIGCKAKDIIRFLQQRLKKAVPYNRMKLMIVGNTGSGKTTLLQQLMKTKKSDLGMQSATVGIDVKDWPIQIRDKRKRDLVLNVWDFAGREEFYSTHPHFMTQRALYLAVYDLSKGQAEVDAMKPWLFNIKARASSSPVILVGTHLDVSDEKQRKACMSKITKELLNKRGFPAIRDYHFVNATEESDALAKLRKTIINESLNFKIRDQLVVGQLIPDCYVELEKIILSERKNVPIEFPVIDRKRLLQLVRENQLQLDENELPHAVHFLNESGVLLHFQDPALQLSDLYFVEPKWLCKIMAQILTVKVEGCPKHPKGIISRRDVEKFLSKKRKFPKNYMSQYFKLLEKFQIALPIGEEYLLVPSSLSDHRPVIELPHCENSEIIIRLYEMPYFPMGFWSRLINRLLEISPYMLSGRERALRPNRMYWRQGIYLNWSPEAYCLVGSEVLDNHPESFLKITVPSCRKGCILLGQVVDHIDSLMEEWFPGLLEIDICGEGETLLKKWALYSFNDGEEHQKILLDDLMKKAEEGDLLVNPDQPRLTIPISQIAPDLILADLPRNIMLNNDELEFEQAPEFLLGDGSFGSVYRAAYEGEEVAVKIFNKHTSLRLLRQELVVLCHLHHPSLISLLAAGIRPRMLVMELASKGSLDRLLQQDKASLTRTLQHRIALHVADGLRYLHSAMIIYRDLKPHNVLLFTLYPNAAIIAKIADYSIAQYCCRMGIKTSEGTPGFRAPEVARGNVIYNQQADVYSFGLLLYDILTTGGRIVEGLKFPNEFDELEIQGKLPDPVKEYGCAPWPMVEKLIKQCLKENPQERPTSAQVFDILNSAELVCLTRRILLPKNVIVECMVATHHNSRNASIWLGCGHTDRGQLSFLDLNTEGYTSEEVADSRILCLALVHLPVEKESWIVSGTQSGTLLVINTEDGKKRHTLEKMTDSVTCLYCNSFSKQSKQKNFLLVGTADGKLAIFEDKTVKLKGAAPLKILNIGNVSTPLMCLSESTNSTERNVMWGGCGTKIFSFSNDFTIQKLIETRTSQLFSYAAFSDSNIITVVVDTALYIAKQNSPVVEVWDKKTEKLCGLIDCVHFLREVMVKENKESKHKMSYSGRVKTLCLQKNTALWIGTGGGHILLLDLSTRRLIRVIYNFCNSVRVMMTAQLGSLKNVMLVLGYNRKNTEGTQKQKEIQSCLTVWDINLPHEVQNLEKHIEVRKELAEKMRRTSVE
In words: LRRK2 pSer1292 autophosphorylation western immunoblot in HEK293 cells stably overexpressing G2019S-LRRK2. It is filed as cell-based. The note with it: for decrease in LRRK2 pSer1292 levels: G2019S-LRRK2 cells, 2 h. How it is done:
(§1) Cells were plated at a density of 0.3 × 10^6 cells in a 6-well dish and treated at ~40–50% confluency. At the time of harvest, cells were collected and either protein collected or DNA extracted as described below.
(§2) For LRRK2-WT or G2019S-LRRK2, ~1.5 million cells were pelleted and resuspended in 75 μl of lysis buffer [(RIPA Buffer (Sigma-Aldrich, R0278-50ML), protease inhibitor cocktail (Sigma-Aldrich, P8340), and Halt phosphatase inhibitor cocktail (Thermo Fisher, 78420)]. For LCLs, five million cells were pelleted and resuspended in 100 µl of lysis buffer. For both types of cells lysates were centrifuged at 10,000 × g after a 10 min incubation on ice, and the supernatant was collected. Protein was quantified using the DC protein assay (Bio-Rad, 5000112). In total, 50 μg of protein was loaded for HEK293 LRRK2-WT or G2019S-LRRK2 cells. Due to the differing endogenous LRRK2 levels, 40 µg of ND02559, 60 µg of ND00264, or 100 µg of ND00011 and ND01618 of protein sample was loaded. Protein samples were incubated at 100 °C for 5 min with NuPAGE Sample loading dye (Thermo Fisher, NP0007) and dithiothreitol as reducing agent. After 4–20% SDS-PAGE, the blots were blocked in 5% w/v nonfat dry milk in 1X PBST (0.05% Tween 20). For our investigations, the following primary antibodies were used: mouse anti-LRRK2 N241a (Antibodies INC, 75-253, 1:5000 for HEK293 cells and 1:2000 for LCLs), rabbit anti-LRRK2 pS935 (Abcam, ab133450, 1:10,000 for HEK293 cells and 1:2000 for LCLs), mouse anti-β-actin (Novus, 8H10D10, 1:10,000), and rabbit anti-LRRK2 pS1292 (Abcam, ab203181, 1:500). The blots were then probed with fluorescent-labeled secondary antibodies, IRDye donkey anti-mouse and anti-rabbit at 1:10,000 (LI-COR, 926-32212, 926-68072), and scanned using an Odyssey Imaging scanner (LI-COR). Fluorescence intensities were quantified using ImageStudio Lite software (LI-COR), and the signal from the protein of interest was normalized to the fluorescence intensity of either LRRK2 or β-actin. Values were averaged from at least three technical replicates within a cell line, or two biological replicates (two healthy control lines and two PD LCLs). All blots were derived from the same experiment and processed in parallel.
On the technique in general: A western blot detects proteins with antibodies after separation by electrophoresis.

Details of series [2]: method as in PMID 33197196. The note with it: cited from earlier work.
Series [3] deals with T2, human LRRK2 (WT-LRRK2) (Homo sapiens, UniProt Q5S007).
T2 construct: WT-LRRK2 or G2019S-LRRK2 overexpressing cells show expression of LRRK2 pSer1292 and full-length LRRK2; expressed in transfected cells
In words: LRRK2 pSer935 quantitative western immunoblot in HEK293 cells stably overexpressing WT-LRRK2. The class given is cell-based. How it is done:
as §1
(§3) For LRRK2-WT or G2019S-LRRK2, ~1.5 million cells were pelleted and resuspended in 75 μl of lysis buffer [(RIPA Buffer (Sigma-Aldrich, R0278-50ML), protease inhibitor cocktail (Sigma-Aldrich, P8340), and Halt phosphatase inhibitor cocktail (Thermo Fisher, 78420)]. For LCLs, five million cells were pelleted and resuspended in 100 µl of lysis buffer. For both types of cells lysates were centrifuged at 10,000 × g after a 10 min incubation on ice, and the supernatant was collected. Protein was quantified using the DC protein assay (Bio-Rad, 5000112). In total, 50 μg of protein was loaded for HEK293 LRRK2-WT or G2019S-LRRK2 cells. Due to the differing endogenous LRRK2 levels, 40 µg of ND02559, 60 µg of ND00264, or 100 µg of ND00011 and ND01618 of protein sample was loaded. Protein samples were incubated at 100 °C for 5 min with NuPAGE Sample loading dye (Thermo Fisher, NP0007) and dithiothreitol as reducing agent. […] Fluorescence intensities were quantified using ImageStudio Lite software (LI-COR), and the signal from the protein of interest was normalized to the fluorescence intensity of either LRRK2 or β-actin. […]

Series [4] concerns the target T1, G2019S variant of human LRRK2 (G2019S-LRRK2). In words: LRRK2 pSer935 quantitative western immunoblot in HEK293 cells stably overexpressing G2019S-LRRK2. The class given is cell-based. How it is done:
as §1
as §2, with “Values were averaged from at least three technical replicates within a cell line, or two biological replicates (two healthy control lines and two PD LCLs). All blots were derived from the same experiment and processed in parallel.” left out

Series [5] has as its target T3, LRRK2 in healthy control lymphoblastoid cells (LCLs) (Homo sapiens, UniProt Q5S007).
T3 construct: Due to the differing endogenous LRRK2 levels; host or cells: healthy subject control-derived lymphoblastoid cell lines (n = 2)
Nature of the series: LRRK2 pSer935 western immunoblot in healthy control-derived LCLs. The note with it: 10 and 100 nM, 2 h. It is filed as cell-based. How it is done: PD patient G2019S LRRK2 (n = 2) and healthy subject control (n = 2)-derived LCLs were obtained from the NINDS Coriell biorepository (ID numbers are ND00011, ND00264, ND01618, ND02559). […] LCLs were cultured at 37 °C, 5% CO2, in RPMI-1640 (Sigma-Aldrich, R8758), 15% heat-inactivated fetal bovine serum (VWR Seradigm, 97068-091) and 0.5% Penicillin/Streptomycin (Corning, 30-002-CI). […] All in vitro experiments were repeated at least three times from distinct samples.
as §3, with “cells.” for “cells. Due to the differing endogenous LRRK2 levels, 40 µg of ND02559, 60 µg of ND00264, or 100 µg of ND00011 and ND01618 of protein sample was loaded. Protein samples were incubated at 100 °C for 5 min with NuPAGE Sample loading dye (Thermo Fisher, NP0007) and dithiothreitol as reducing agent.”

The test system of series [6] is R1441C LRRK2 cultures. On the set-up: method as in PMID 37384414. The note with it: R1441C LRRK2 cultures ref 71; cited from earlier work.

T3 sequence (Q5S007 whole entry): as the sequence (Q5S007 whole entry G2019S) above, with S2019G counted along it

In the case of `CC1=C(C(=O)Nc2ccc3[nH]nc(-c4ccnc(N5CCOCC5)c4)c3c2)C(C)(C)n2nnnc2N1C` [EB-42168], the IC50 in series [1] (G2019S-LRRK2 HEK293 cells, 2 h treatment, read-out: calculated IC50 of LRRK2 pSer1292) was 44 nM; in series [3] (WT LRRK2 HEK293 cell line, 2 h treatment, 10 nM-1 μM titration, read-out: calculated half-maximal inhibition (IC50) of LRRK2 pSer935), above 5000 nM; in series [4] (G2019S LRRK2 HEK293 cell line, 2 h treatment, 10 nM-1 μM titration, read-out: calculated half-maximal inhibition (IC50) of LRRK2 pSer935) it was 54 nM. For the same compound, the “decrease in LRRK2 pSer1292 levels” value was 30% in series [1] (10 nM); “dephosphorylated” in series [1] (10 nM, listed as EB-42618); ~ 70% and 65% in series [1] (100 nM). In addition, in series [2], the brain penetration result is on record as “poorly brain penetrant”. Also, in series [3] (WT-LRRK2 cells, 10 nM up to 1 μM, 2 h), the “effect on LRRK2 pSer935 over the concentration range (in words)” value is listed as “no inhibition; also recorded: no change; also recorded: no detectable effect”. In series [4] (G2019S-LRRK2 cells, 10 nM, 2 h), the “decrease in LRRK2 pSer935 levels” value was “no significant dephosphorylation”. In series [4] (HEK293 overexpressing cells), the “fold more potent on G2019S LRRK2 than WT LRRK2 (pS935 IC50)” value is above 90 fold. In series [5], the “effect on LRRK2 pSer935 (in words)” value is reported as “did not impact; also recorded: no change; also recorded: without a change”.

Turning to `C[C@@H]1CN(c2cc(-c3n[nH]c4ccc(OC5(C)CC5)cc34)ncn2)C[C@H](C)O1` [MLi-2, reference compound], in series [6], the “impaired mitophagy and other mitochondrial parameters” value is “not corrected”.
